Test results taken from US9359378B2, “Substituted oxazolo[3,4-a]pyrazines as pharmaceutcals” (BIOLAB SANUS FARMACÊUTICA LTDA., priority 2014, dated 2016).

Legend:
Assay type in all cases: biochemical
Settings in all cases: human recombinant enzyme (Sf9); FIGS. 14 and 15; test concentration not given
[1] = target: T1, PDE4D2 (Homo sapiens, UniProt Q08499); assay: PDE4D2 enzyme inhibition (HTRF, cAMP substrate)
T1 construct: host or cells: Sf9
Protocol: The effects of the BL-230 and BL-236 compounds on the activity of the human PDE4D2 enzyme were quantified by measuring the production from 5′ AMP cAMP using a human recombinant enzyme expressed in Sf9 cells and the method of detection used was the HTRF®.
The test compound, the reference compound or the water (control) were mixed with 0.75 U of PDE4D2 in a saline buffer solution balanced with Hanks (HBSS) (Invitrogen) supplemented, and 1.5 mM MgCl2, 0.1% bovine serum albumin (BSA). Then, the reaction was initiated by addition of 40 nM of cAMP substrate and the mixture is incubated for 15 minutes at 37° C. For basal control measurements, the enzyme was omitted from the reaction mixture. The fluorescence acceptor (Dye2 labeled cAMP) and fluorescence donor (anti-cAMP antibody labeled with europium cryptate) are added in the presence of 1 mM IBMX. After 60 minutes at room temperature, the fluorescence corresponding to the amount of transfer residual cAMP was measured at λex=337 nm, λem=620 nm and λem=665 nm using a microplate reader (Envision, Perkin Elmer). The enzyme activity was determined by the signal division measured at 665 nm, by the measured signal at 620 nm (ratio). The results were expressed as an inhibition percentage of the control enzyme activity. […]

[2] = target: T2, PDE1B (Homo sapiens, UniProt Q01064); assay: PDE1B enzyme inhibition (HTRF, cGMP substrate)
T2 construct: host or cells: Sf9
Protocol: The effects of BL-230 and BL-236 compounds on the activity of PDE1B human enzymes were quantified by measuring the production of guanosine 5′-monophosphate (5′GMP) from cyclic guanosine monophosphate (cGMP), using human recombinant enzyme expressed in Sf9 cells, and the detection method was by using HTRF® (Homogeneous Time Resolved Fluorescence Technology).
The test compound, the reference compound or the water (control) were mixed with 0.07 U from the enzyme PDE1B in a buffer containing 44.4 mM Tris-hydroxymethyl aminomethane hydrochloride (Tris-HCl), 5.28 mM magnesium chloride (MgCl2), 0.88 mM calcium chloride (CaCl2), 2.64 mM dithiothreitol (DTT) and 0.198 U of calmodulin and 0.044% polysorbate 20 (Tween® 20) (pH 7.8). […] The fluorescence acceptor (Dye2 labeled cGMP) and fluorescence donor (anti-cGMP antibody labeled with europium cryptate) were added in the presence of 1 mM 3-isobutyl-1-methylxanthine (IBMX). After 60 minutes, the transfer of fluorescence corresponding to the amount of residual cGMP was measured at λex=337 nm, λem=620 nm and λem=665 nm using a microplate reader (RubyStar, BMG). The enzyme activity was determined by the signal division measured at 665 nm, by the measured signal at 620 nm (right). The results were expressed as a inhibition percentage of the control enzyme activity. […]

[3] = target: T3, PDE3A (Homo sapiens, UniProt Q14432); assay: PDE3A enzyme inhibition (HTRF, cAMP substrate)
T3 construct: host or cells: Sf9
Text: The effects of the BL-230 and BL-236 compounds on the activity of the human enzymes PDE2A1, PDE3A, PDE4A1A, PDE4B1, PDE7A, PDE8A1, and PDE10A2 and PDE11A4 were quantified by measuring the production of adenosine 5′-monophosphate (5′AMP) from cyclic adenosine monophosphate (cAMP), with human recombinant enzyme expressed in Sf9 cells and the detection method was by using HTRF®.
The test compound, the reference compound or water (control) were mixed with the enzyme (the enzymes and their amounts used are described in Table 1) in a buffer containing 44.4 mM Tris-HCl, 5.28 mM MgCl2, 2.64 mM DTT and 0.044% Tween® 20 (pH 7.8). Then, the reaction was initiated by the addition of 40 nM of cAMP substrate and the mixture was incubated for 30 minutes at room temperature. For basal control measurements, the enzyme was omitted from the reaction mixture. The fluorescence acceptor (Dye2 labeled cAMP) and fluorescence donor (anti-cAMP antibody labeled with europium cryptate) were added in the presence of 1 mM IBMX. After 60 minutes, the fluorescence corresponding to the amount of transfer residual cAMP was measured at λex=337 nm, λem=620 nm and λem=665 nm using a microplate reader (RubyStar, BMG). The enzyme activity was determined by the signal division measured at 665 nm, by the measured signal at 620 nm (right). The results were expressed as a inhibition percentage of the control enzyme activity. […]

T3 sequence (Q14432 whole entry): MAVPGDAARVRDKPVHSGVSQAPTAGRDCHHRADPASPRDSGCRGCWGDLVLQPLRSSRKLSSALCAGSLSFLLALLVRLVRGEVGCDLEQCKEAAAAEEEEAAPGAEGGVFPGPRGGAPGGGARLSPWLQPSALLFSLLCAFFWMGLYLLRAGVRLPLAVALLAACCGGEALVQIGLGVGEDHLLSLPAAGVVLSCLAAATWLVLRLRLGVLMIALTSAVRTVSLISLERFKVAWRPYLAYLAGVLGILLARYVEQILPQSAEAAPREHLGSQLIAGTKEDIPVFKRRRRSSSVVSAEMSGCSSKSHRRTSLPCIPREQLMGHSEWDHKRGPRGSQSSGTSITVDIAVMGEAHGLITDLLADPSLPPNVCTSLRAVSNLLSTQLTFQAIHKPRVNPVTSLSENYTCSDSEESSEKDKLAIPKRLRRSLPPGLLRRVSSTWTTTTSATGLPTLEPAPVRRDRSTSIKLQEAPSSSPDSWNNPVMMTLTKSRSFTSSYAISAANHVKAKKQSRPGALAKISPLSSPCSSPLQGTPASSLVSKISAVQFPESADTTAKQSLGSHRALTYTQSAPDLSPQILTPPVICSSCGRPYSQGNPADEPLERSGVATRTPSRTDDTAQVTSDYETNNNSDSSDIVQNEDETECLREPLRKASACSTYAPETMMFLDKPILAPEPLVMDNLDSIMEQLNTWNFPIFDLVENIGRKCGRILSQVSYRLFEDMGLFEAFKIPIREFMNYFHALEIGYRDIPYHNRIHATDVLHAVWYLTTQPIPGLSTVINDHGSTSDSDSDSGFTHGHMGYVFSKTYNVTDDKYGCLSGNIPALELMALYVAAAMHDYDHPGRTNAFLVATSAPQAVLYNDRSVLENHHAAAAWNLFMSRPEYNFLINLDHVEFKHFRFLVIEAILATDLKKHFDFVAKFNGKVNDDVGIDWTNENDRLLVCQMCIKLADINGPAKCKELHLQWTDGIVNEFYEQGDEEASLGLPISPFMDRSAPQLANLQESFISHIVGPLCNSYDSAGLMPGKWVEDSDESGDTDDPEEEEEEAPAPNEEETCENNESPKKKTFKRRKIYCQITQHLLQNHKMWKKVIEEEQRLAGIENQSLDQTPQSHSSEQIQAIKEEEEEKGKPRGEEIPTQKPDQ
T1 sequence (Q08499 303-809 limits assumed): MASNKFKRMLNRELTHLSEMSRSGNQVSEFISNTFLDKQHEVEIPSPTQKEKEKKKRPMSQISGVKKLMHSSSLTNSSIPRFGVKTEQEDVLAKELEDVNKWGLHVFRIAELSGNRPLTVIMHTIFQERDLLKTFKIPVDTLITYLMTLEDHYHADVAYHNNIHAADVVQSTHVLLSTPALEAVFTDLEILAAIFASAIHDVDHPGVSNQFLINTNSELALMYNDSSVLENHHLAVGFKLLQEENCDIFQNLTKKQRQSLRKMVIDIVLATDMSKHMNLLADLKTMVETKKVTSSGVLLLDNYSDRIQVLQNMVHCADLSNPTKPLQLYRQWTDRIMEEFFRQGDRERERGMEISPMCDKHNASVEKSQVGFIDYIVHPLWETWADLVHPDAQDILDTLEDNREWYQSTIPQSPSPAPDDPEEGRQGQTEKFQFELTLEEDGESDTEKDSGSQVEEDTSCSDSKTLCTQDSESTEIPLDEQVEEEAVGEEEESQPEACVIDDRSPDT

inhibition of PDE4D2 enzyme activity [1]	inhibition of PDE1B enzyme activity [2]	inhibition of PDE3A enzyme activity [3]	SMILES
55%	did not inhibit	did not inhibit	O=C1C2=C(c3c[nH]c4ccccc34)OC(c3ccc4c(c3)OCO4)N2C(=O)CN1CCO (stereo not drawn) [BL-230, 3-(benzo[d][1,3]dioxol-5yl)-7-(2-hydroxyethyl)-1-(1H-indol-3-yl)-6,7-dihydro-3H-oxazolo[3,4-a]pyrazine-5,8-dione]
no inhibitory effect	did not inhibit	did not inhibit	C[C@@H](CO)N1CC(=O)N2C(=C(c3c[nH]c4ccccc34)OC2c2ccc3c(c2)OCO3)C1=O (stereo partly drawn) [BL-236, 3-(benzo[d][1,3]dioxol-5yl)-7-((S)1-hydroxypropan-2yl)-1-(1H-indol-3-yl)-6,7-dihydro-3H-oxazolo[3,4-a]pyrazine-5,8-dione]
